# Assay results from patent US7208597B2, “Pyridyl-triazine derivatives as microbiocidal active substances” (Ciba Specialty Chemicals Corporation, priority 2002, dated 2007).
# Experiments:
# Format in all cases: cell-based
# [1] = test system: Staphylococcus aureus ATCC 6538; assay: MIC, agar incorporation test; settings: ATCC6538, 24 hours at 37° C.
# Procedure: (§1) Determination of the Minimum Inhibitory Concentration (MIC) in the Agar Incorporation Test (MIC Test) [table] The plates are incubated at 37° C. for 24 hours (A. niger at 28° C. for 3 days) and then the highest dilution (lowest concentration) of the test substance at which growth is just no longer discernible (corresponds to the MIC) is determined.
# [2] = test system: Staphylococcus epidermidis ATCC 12228; assay: MIC, agar incorporation test; settings: ATCC12228, 24 hours at 37° C.
# Procedure: as §1
# [3] = test system: Escherichia coli ATCC 10536; assay: MIC, agar incorporation test; settings: ATCC10536, 24 hours at 37° C.
# Procedure: as §1
# [4] = test system: Proteus vulgaris ATCC 6896; assay: MIC, agar incorporation test; settings: ATCC6896, 24 hours at 37° C.
# Procedure: as §1
# [5] = test system: Pseudomonas aeruginosa ATCC 15442; assay: MIC, agar incorporation test; settings: ATCC15442, 24 hours at 37° C.
# Procedure: as §1
# [6] = test system: Escherichia coli NCTC 8196; assay: MIC, agar incorporation test; settings: NCTC8196, 24 hours at 37° C.
# Procedure: as §1
# [7] = test system: Salmonella choleraesuis ATCC 9184; assay: MIC, agar incorporation test; settings: Salmonella enterica, 24 hours at 37° C.
# Procedure: as §1
# [8] = test system: Aspergillus niger ATCC 6275; assay: MIC, agar incorporation test; settings: ATCC6275, 72 h, 28° C. for 3 days
# Procedure: as §1
# [9] = test system: C. minutissimum ATCC 23348; assay: MIC, agar incorporation test; settings: Corynebacterium minutissimum, ATCC23348, 24 hours at 37° C.
# Procedure: as §1
# [10] = test system: Corynebacterium xerosis ATCC 373; assay: MIC, agar incorporation test; settings: ATCC373, 24 hours at 37° C.
# Procedure: as §1
# [11] = test system: Candida albicans ATCC 10231; assay: MIC, agar incorporation test; settings: ATCC10231, 24 hours at 37° C.
# Procedure: as §1
# [12] = test system: Klebsiella pneumoniae ATCC 4352; assay: MIC, agar incorporation test; settings: ATCC4352, 24 hours at 37° C.
# Procedure: as §1
# [13] = test system: Propionibacterium acnes ATCC 6919; assay: MIC, agar incorporation test; settings: Cutibacterium acnes, ATCC6919, 24 hours at 37° C.
# Procedure: as §1
# [14] = test system: Actinomyces viscosus ATCC 43146; assay: Substantivity on hydroxyapatite and growth-inhibiting action; settings: discs pre-treated with artificial saliva, 30 minutes in ethanolic solution at 5 ppm; 24 hours at 37° C.; compared to untreated control
# Procedure: Testing the Substantivity of 2-tert-butyl-4-n-octylamino-6-pyrid-2-yl-1,3,5-triazine (140) on Hydroxyapatite and Determination of the Growth-Inhibiting Action Hydroxyapatite discs (diameter 10 mm) are placed in artificial saliva (Deutsche Zahnärztliche Zeitschrift DZZ 5/2002) for 4 hours, rinsed 4 times in NaCl solution and then incubated for 30 minutes in an ethanolic solution of the test substance (140) at 5 ppm. The discs are then transferred to a Nunclon-surface titre plate (12 wells) and incubated at 37° C. for 24 hours in CASO nutrient medium inoculated with Actinomyces viscosus ATCC 43146 (about 10^5/ml).
# [15] = test system: biofilm of a defined mixed culture of various gram+ and gram− oral micro-organisms and a yeast (Candida albicans); assay: Activity in the biofilm model (supragingival plaque on hydroxyapatite discs)
# Text: Testing the Activity of 2-tert-butyl-4-n-octylamino-6-pyrid-2-yl-1,3,5-triazine (140) in the Biofilm Model Principle: See Guggenheim et al. (2001), “Validation of an in vitro biofilm model of supragingival plaque”, J. Dent Res. 80 (1). Hydroxyapatite discs are pre-treated with human saliva and a biofilm of a defined mixed culture of various gram+ and gram− oral micro-organisms (Streptococci, Actinomyces sp., Veillonella & Fusobacterium sp. and others) and a yeast (Candida albicans) is allowed to grow on the hydroxyapatite. Over the course of the test, which lasts a total of 4 days, the discs are immersed several times in an application formulation of the substance (0.5% (140)). Finally, the biofilm is harvested and the living cell count is determined.
smiles,measurement,setting,value
CCCCCCCCCCCC(=O)Nc1nc(C)nc(-c2ccncc2)n1 [Compound of formula (123)],MIC,[1],8 µg/mL
CCCCCCNc1nc(C)nc(-c2cccnc2)n1 [Compound of formula (135)],MIC,[1],60 µg/mL
CCCCCCNc1nc(C)nc(-c2ccccn2)n1 [Compound of formula (131)],MIC,[1],30 µg/mL
"CCCCCCCCNc1nc(-c2ccccn2)nc(C(C)(C)C)n1 [Compound of formula (140), 2-tert-butyl-4-n-octylamino-6-pyrid-2-yl-1,3,5-triazine]",MIC,[2],120 µg/mL
same,MIC,[1],0.94 µg/mL
same,MIC,[3],60 µg/mL
same,MIC,[4],> 120 µg/mL
same,MIC,[5],> 120 µg/mL
same,MIC,[6],60 µg/mL
same,MIC,[7],120 µg/mL
same,MIC,[8],> 120 µg/mL
same,MIC,[9],0.94 µg/mL
same,MIC,[10],0.94 µg/mL
same,MIC,[11],> 120 µg/mL
same,MIC,[12],120 µg/mL
same,MIC,[13],0.94 µg/mL
same,inhibition of the growth of Actinomyces viscosus following adsorption onto hydroxyapatite discs,[14],inhibition of the growth
same,action on microbial count of the biofilm (in words),[15]; compared to placebo formulation and control containing 10% ethanol,clear reduction in the microbial count
same,living cell count of biofilm (Mean),"[15]; hydroxyapatite discs pre-treated with human saliva, 4 days, discs immersed several times in application formulation (0.5% (140))",1.1 × 10^5 CPU/disc
